Measured values reported in paper PMC8147656 (Journal of Personalized Medicine, 2021).
Read-outs that look alike come from different tables or passages of the source. Values belong to the molecule of their own block, whether it stands above or below them.

Experiments:
[1] = test system: CYP2C19; assay: CYP2C19-mediated metabolism (fm, intrinsic clearance); type: in vitro ADME, human
Protocol: (§1) Absorption was described by a first-order absorption model in line with previous studies. The steady-state volume of distribution (Vss) value was based on previous models.
(§2) The full PBPK model was developed for gliclazide using a middle-out approach. The Vss was predicted by Simcyp Rodgers et al. + ion membrane permeability model. […] The intrinsic clearances per pmol of CYP enzymes were calculated using total intrinsic clearance measured in vitro in human liver microsomes, and fm values obtained from in vivo data. […] Considering the difference in abundance and activity of the transporter between liver and the transfected cell line, a relative activity factor (RAF) was optimized to fit the observed clinical data. Liver passive diffusion clearance (ClPD) of gliclazide was estimated based on experimental logD7.4 value.

[2] = test system: CYP2C9; assay: CYP2C9-mediated metabolism (fm, intrinsic clearance); type: in vitro ADME, human; settings: gliclazide; calculated from microsomal total intrinsic clearance [10], CYP abundances and fm [36]
Protocol: as §2

[3] = Clinical trial on omeprazole-gliclazide interaction in healthy volunteers, CYP2C19 NM/RM/UM; type: in vivo, human; settings: for AUC(0-t): male, human, serum, oral, 40 mg, gliclazide 40 mg tablet, current trial, geometric mean (95% CI), read-out: AUC0–24, observed
From the text: Fifteen healthy volunteers (men, age 18–30 years, non-smokers) with CYP2C19 NM/RM/UM status were recruited. The exclusion criteria included: a medical history of hepatic, renal, gastrointestinal or hematologic disease or any acute or chronic disease; drug allergy to sulfonylureas or PPIs; history of drug abuse; abnormalities in physical examination, ECG or routine clinical laboratory tests (including fasting blood glucose concentration); medication use during the 14 days prior to and during the study period; grapefruit, grapefruit juice, alcohol, beverages or food containing methylxanthines use during the 72 h prior to and during the study period.
On day 5 of each admission period, after an overnight fast, the volunteers were admitted to the hospital. […] Drugs were given in a sitting position, at 8 AM. Volunteers were not permitted to lie down or sleep for the next 4 h after taking drugs, as well as to perform any strenuous activities for the next 24 h. In order to counteract the blood glucose-lowering action of gliclazide, volunteers received standardized meals: breakfast at 30 min after gliclazide intake, snacks after 2 and 3 h, a lunch (warm meal) after 4 h, a snack after 6 h, dinner after 8 h, and additional snacks at 10 h and 12 h after drugs administration. No other food and drink (with the exception of water) were allowed. For safety reasons, the volunteers were under direct medical supervision throughout the 24 h following drugs administration. Fast-acting carbohydrates, glucose solution for i.v. use and glucagon for intramuscular use were available in case of hypoglycemia.
Venous blood samples were collected on day 5 of each admission period before dosing (0 h) and 0.5, 1, 1.5, 2, 2.5, 3, 3.5, 4, 4.5, 5, 6, 8, 10, 12, 15 and 24 h after gliclazide administration. Serum samples for gliclazide quantification were separated within 30 min following each blood sample collection and stored at −80 °C until the analysis.
Serum gliclazide concentrations were quantified using a validated stable isotope dilution liquid chromatography-tandem mass spectrometry (LC-MS/MS) method. In brief, a total of 10 µL serum was added to 90 µL acetonitrile containing 100 ng/mL of d4-gliclazide and 0.1% formic acid. […] Gliclazide was quantitated by the triple quadrupole mass spectrometer in ESI positive ion mode. […] The limit of quantification was 3.1 ng/mL.
PK parameters were calculated in a noncompartmental analysis using PKSolver, a program for PK data analysis in Microsoft Excel. The area under the plasma gliclazide concentration-time curve (AUC) up to the last concentration measured (AUC0–t) was determined using the linear trapezoidal rule.
The main evaluated outcome was systemic exposure to gliclazide, expressed as AUC0–t. The geometric mean was calculated for AUC0–24. […]

[4] = In vitro dissolution testing under biorelevant media-change conditions; type: physicochemical; settings: conditions without vs with omeprazole (gastric pH)
Protocol: In order to estimate the drug release rate in vivo and concomitant absorption profile, dissolution tests were performed under biorelevant media-change conditions (Table 3), using USP apparatus 2 (Erweka DT 800, Heusenstamm, Germany) at 37 ± 0.5 °C and rotational speed of 100 rpm. Withdrawn aliquots were filtered, diluted and analysed for gliclazide by UV spectrophotometry (UV-1700 spectrophotometer, Shimadzu, Japan). The absorbance obtained at 226 nm was corrected by subtracting the absorbance obtained at 290 nm, according to British Pharmacopeia. All measurements were performed in triplicate. The pH values and tablet residence time in each medium were selected based on the proposed biorelevant dissolution test conditions. […] Medium pH 6.0 was used to simulate the fed state luminal conditions in the ascending colon.

[5] = Population observational study of patients with T2D (GoDARTS): severe gliclazide-induced hypoglycemia; type: in vivo, human; settings: gliclazide-treated cohort with genetic data (48 cases and 288 controls); OR (95% CI), p = 0.187
From the text: We used the Scottish Ambulance Service data and the Accident and Emergency diagnosis records to identify severe cases of hypoglycemia in Tayside and Fife, Scotland. […] Logistic regression was used to analyze the effect of the CYP2C19 variants and co-treatment with PPIs on gliclazide-induced hypoglycemia. All analyses were adjusted for known clinical predictors of hypoglycemia, including age, sex, age of T2D diagnosis, body mass index, creatinine and HbA1c [53], as well as the overall number of medications used as a proxy for comorbidities [54]. The CYP2C19 phenotypes were assigned based on diplotypes in the same manner as in healthy volunteers. The analyses were performed using SAS 9.3 (SAS Institute Inc., Cary, NC, USA). Statistical significance was set at p < 0.05.

[6] = cited from earlier work
[7] = gliclazide; ref Proks et al., 2018 [46]; cited from earlier work
[8] = test system: CYP2C19; settings: cited from earlier work
[9] = test system: CYP2C9; settings: human liver microsomes, CYP selective inhibitors; cited from earlier work
[10] = test system: OATP1B1; settings: cited from earlier work
[11] = test system: Mrp2; design: method as in PMID 18799822; settings: cited from earlier work
[12] = cited from earlier work; remark: listed apart in the source
[13] = single oral gliclazide, healthy Chinese volunteers, cited from earlier work
[14] = test system: CYP3A4; assay: CYP3A4-mediated metabolism (fm, intrinsic clearance); type: in vitro ADME, human; settings: omeprazole; retrograde calculated from observed Clpo after 20 mg single dose, fa*fg = 1
From the text: as §1

[15] = omeprazole, cited from earlier work
[16] = test system: CYP3A4; design: method as in PMID 24739523; settings: omeprazole; average value for CYP2C19 EM/RM/UM phenotypes; cited from earlier work
[17] = test system: CYP2C19; design: method as in Ogilvie et al., 2011 [27]; settings: omeprazole; ref Ogilvie et al., 2011 [27]; cited from earlier work
[18] = design: method as in Hassan-Alin et al., 2005 [30]; settings: geometric mean (95% CI), ref Hassan-Alin et al., 2005 [30], cited from earlier work; for Cmax: read-out: Cmax, observed
[19] = test system: CYP2C19; settings: previous study based on omeprazole enantiomers; cited from earlier work
[20] = design: method as in PMID 11117653; settings: healthy volunteers; cited from earlier work
[21] = gliclazide model input, ref Grbic et al., 2011 [40]
[22] = gliclazide, ref Chen et al., 2018 [37]
[23] = gliclazide 30 mg MR tablet, single oral, geometric mean (95% CI)
[24] = gliclazide 80 mg IR tablet, single oral, geometric mean (95% CI)
[25] = gliclazide i.v. infusion 30 mg, geometric mean (95% CI)
[26] = omeprazole model input, ref Ogilvie et al., 2011 [27]
[27] = first-order absorption model, ref Ogilvie et al., 2011 [27]

- Clint CYP2C19 ([1]; gliclazide, calculated from microsomal total intrinsic clearance [10], CYP abundances and fm [36]): 0.273 µL/min/pmol
- Clint CYP2C9 [2]: 0.004 µL/min/pmol
- Geometric mean ratio of gliclazide AUC0–24, omeprazole phase/placebo phase ([3]; 40 mg gliclazide, 20 mg omeprazole 5 days, 14 healthy volunteers NM/RM/UM, ratio (90% CI)): 1.13 (0.86–1.48)
- AUC(0-t) ([3]; omeprazole phase): 3730 ng·h/mL
- AUC(0-t) ([3]; placebo phase): 3290 ng·h/mL
- Initial gliclazide release rate between media pH 1.6 and pH 3.0 [4]: no difference
- Odds ratio of hypoglycemia for the loss-of-function CYP2C19*2 allele [5]: 0.50 (0.18–1.40)
SMILES: Cc1ccc(S(=O)(=O)NC(=O)NN2CC3CCCC3C2)cc1 (stereo not drawn) [gliclazide]
- Hypoglycemia or other adverse effects in the trial ([3]; 40 mg gliclazide with placebo or 20 mg omeprazole, healthy volunteers): no cases of hypoglycemia or any other adverse effect
- Log P ([6]; gliclazide model input, ref El-Sabawi, et al., 2014 [45]): 2.04
- Compound type [6, 21]: Ampholyte
- pKa (first value) [6, 21]: 2.9
- pKa (second value) [6, 21]: 5.8
- fu (fraction unbound) [7]: 0.15
- Contribution of CYP2C19 to gliclazide metabolism ([8]; human liver microsomes, CYP selective inhibitors): ≤ 35%
- Contribution of CYP2C9 to gliclazide metabolism [9]: at least 65%
- Substrate of hepatic OATP1B1 transporter [10]: substrate
- Km [10, 22]: 30.2 µM
- OATP1B1 Jmax [10, 22]: 12.9 pmol/min/10^6 cells
- Substrate for the efflux Mrp2 transporter in rats [11]: substrate
- AUC0–72, observed [12, 23]: 14.4 (12.4–16.8) µgh/mL
- AUC0–∞, observed [12, 23]: 15.6 (13.5–18.1) µgh/mL
- Cmax, observed [12, 23]: 0.71 (0.62–0.82) µg/mL
- tmax, observed ([12]; gliclazide 30 mg MR tablet, single oral, median (minimum–maximum)): 7 (4–10) h
- AUC0–48, observed [12, 24]: 45.5 (38.9–53.3) µgh/mL
- AUC0–∞, observed [12, 24]: 50.9 (42.8–60.5) µgh/mL
- Cmax, observed [12, 24]: 3.51 (3.24–3.80) µg/mL
- tmax, observed [12, 24]: 3.66 (3.10–4.33) h
- AUC0–72, observed [12, 25]: 15.5 (13.0–18.5) µgh/mL
- AUC0–∞, observed [12, 25]: 17.2 (14.5–20.3) µgh/mL
- Cmax, observed [12, 25]: 1.39 (1.16–1.67) µg/mL
- Vss observed in humans in vivo ([12]; gliclazide): 0.19 to 0.46 L/kg
- Observed gliclazide AUC, fold higher in CYP2C19 PM compared to NM ([13]; ref 11): 3.4 fold
- Observed gliclazide AUC, fold higher in CYP2C19 PM compared to NM ([13]; ref 12): 5.1 fold

- Clint CYP2C19 ([1]; omeprazole, retrograde calculated from observed Clpo after 20 mg single dose, fa*fg = 1): 75.1 µL/min/pmol
- Clint CYP3A4 [14]: 0.39 µL/min/pmol
SMILES: COc1ccc2[nH]c([S+]([O-])Cc3ncc(C)c(OC)c3C)nc2c1 (stereo not drawn) [omeprazole]
- Compound type [6, 26]: Ampholyte
- pKa (first value) [6, 26]: 4.4
- fa (fraction absorbed) [15, 27]: 1
- ka (absorption rate constant) [15, 27]: 6 h⁻¹
- Vss ([15]; minimal PBPK model, ref Deng 2016 [29], Wu et al., 2014 [28]): 0.15 L/kg
- ClR (renal clearance) ([15]; ref Wu et al., 2014 [28], Feng et al., 2015 [42]): 0.037 L/h
- fm CYP2C19 ([8]; omeprazole, average value for CYP2C19 EM/RM/UM phenotypes): 86%
- fm CYP3A4 [16]: 14%
- Ki [17]: 5 µM
- AUC0–∞, observed ([18]; omeprazole 20 mg day 1): 1.04 (0.64–1.72) µM × h
- Cmax ([18]; omeprazole 20 mg day 1): 1040 nM
- AUC0–∞, observed ([18]; omeprazole 20 mg day 5): 1.63 (0.96–2.78) µM × h
- Cmax ([18]; omeprazole 20 mg day 5): 1430 nM
- AUC0–∞, observed ([18]; omeprazole 40 mg day 1): 2.44 (1.53–3.91) µM × h
- Cmax ([18]; omeprazole 40 mg day 1): 2320 nM
- AUC0–∞, observed ([18]; omeprazole 40 mg day 5): 5.79 (3.60–9.33) µM × h
- Cmax ([18]; omeprazole 40 mg day 5): 3870 nM
- Predicted lowest level of active CYP2C19, previous study [19]: 14%

SMILES: COc1ccnc(C[S+]([O-])c2nc3ccc(OC(F)F)cc3[nH]2)c1OC (stereo not drawn) [pantoprazole]
- Effect of pantoprazole on glibenclamide PK [20]: no effect
